Results on nine compounds are retold here after US20230331655A1, “HYDROXYN[…] AND METHODS OF USE THEREOF” (UNIVERSITY OF MARYLAND, BALTIMORE, priority 2020, published 2023).

Series [1] in a line: pharmacokinetics in plasma and brain after intraperitoneal administration (UPLC-MS/MS). It counts as in vivo, mouse. Details: key to Brain Concentration over time, sex-dependent difference / Plasma Concentration over time, sex-dependent difference: F, female; M, male; NS, not statistically different. To be noted: i.p. 5 mg/kg; for t1/2 Brain / t1/2 Plasma: terminal half-life; for Brain Concentration over time, sex-dependent difference / Plasma Concentration over time, sex-dependent difference / Brain Total exposure (AUC), sex-dependent difference / Plasma Total exposure (AUC), sex-dependent difference: female vs male mice; for Brain Concentration over time, sex-dependent difference / Plasma Concentration over time, sex-dependent difference: ANOVA, Holm-Šídák post-hoc; for Brain Total exposure (AUC), sex-dependent difference / Plasma Total exposure (AUC), sex-dependent difference: t-test; for brain concentration at 4 h post-treatment: LLOQ 5.0 ng/ml. As to the method:
Male and female CD-1 mice (Charles Rivers Laboratories, Raleigh, NC, USA), 8-11 weeks old at the time of testing, were habituated to the University of Maryland (Baltimore, MD, USA) animal facility for at least one week prior to testing. Mice were group housed 4-5 per cage with a constant 12-hour light cycle (lights on/off at 07:00/19:00). Food and water were available ad libitum. All experiments were performed during the light phase. All animal studies were approved by the University of Maryland School of Medicine Institutional Animal Care and Use Committee and conducted in accordance with the National Institutes of Health Guide for the Care and Use of Laboratory Animals.
(2R,6R)-HNK hydrochloride, (2S,6S)-HNK hydrochloride, (2R,6S)-HNK, (2S,6R)-HNK, (2R,5R)-HNK, (2S,5S)-HNK, (2R,5S)-HNK, (2S,5R)-HNK, (2R,4R)-HNK, (2S,4S)-HNK, (2R,4S)-HNK, and (2S,4R)-HNK hydrochloride were synthesized at the National Center for Advancing Translation Sciences (National Institutes of Health, Rockville, MD, USA) using methods previously described in Morris et al., Org Lett 17:4572-4575 (2017), which is incorporated by reference herein in its entirety. (5R)-methyl-(2R,6R)-HNK was obtained from Organix Inc. (Woburn, MA, USA) or from the National Center for Advancing Translational Sciences (Rockville, MD, USA); synthesis and characterization are described in the Supplemental Information. All compounds were dissolved in 20% (w/v) cyclodextrin (Sigma Aldrich, USA) in saline and administered intraperitoneally (i.p.) in a volume of 7.5 ml/kg.
At 10 min (0.167 h), 30 min (0.5 h), 1 h, 2 h, and 4 h post-treatment, mice were deeply anesthetized (3.5% isoflurane for approximately 2 min). Trunk blood was collected into 1.5-ml polypropylene tubes containing 30 μl of disodium EDTA (0.5 M, pH 8.0) and kept on ice until plasma collection (<30 min). Brains were then removed, flash-frozen in isopentane, and stored at −80° C. until analysis. Blood was centrifuged at 8000×g for 6 min at 4° C. to obtain plasma. Plasma was collected into clean microcentrifuge tubes and stored at −80° C. until analysis.
Ultra-performance liquid chromatography-tandem mass spectrometry (UPLC-MS/MS) methods were developed and optimized to determine the concentration of each HNK in mouse plasma and brain samples following systemic administration. Mass spectrometric analysis was performed on a Waters Xevo TQ-S triple quadrupole instrument using electrospray ionization in positive mode with the selected reaction monitoring. The separation of HNKs from endogenous components was performed on a Waters Acquity UPLC with 0.5 ml/min flow rate and gradient elution. The mobile phase A and B were 0.1% formic acid in water and 0.1% formic acid in acetonitrile, respectively. Plasma and brain concentrations of (2R,6R)-, (2S,6S)-, (2R,4S)-, and (2S,4R)-HNK were determined by hydrophilic interaction liquid chromatography-tandem mass spectrometry (HILIC UPLC-MS/MS) using a BEH amide column (1.7μ, 2.1×50 mm). Plasma and brain concentrations of (2R,6S)-, (2S,6R)-, (2R,5R)- (2S,5S)-, (2R,5S)-, (2S,5R)-, (2R,4R)-, and (2S,4S)-HNK; and (5R)-methyl-(2R,6R)-HNK were determined by reversed phase UPLC-MS/MS based upon a previously described protocol with several modifications using a BEH C18 column ([…], 2.1×50 mm). See Moaddel et al., Talanta 82:1892-1904 (2010), and Zanos et al., Nature 533:481-486 ([…]), both of which are incorporated by reference herein in their entireties.
The gradient for HILIC UPLC method was: 0-0.2 min 98% B; 0.2-1.4 min 98% to 35% B; 1.4-1.8 min 35% to 10% B, 1.9-2.4 min 98% B. The gradient for BEH Cis UPLC method was: 0-0.2 min 1% B; 0.2-1.4 min 1% to 35% B; 1.4-1.8 min 35% to 98% B, 1.8-2.2 min 98% B, 2.3 min 1% B. The analytical run time of the UPLC methods was 2.5 min. The calibration standards and quality control samples were prepared in blank mouse plasma and brain homogenate. Calibration standards ranged from 5.0-5000 ng/ml. […]

Series [2] deals with NMDARs. To be noted: read-out: Ki (binding / inhibition of NMDARs); cited from earlier work.

With `N[C@@]1(c2ccccc2Cl)CC[C@H](O)CC1=O` [(2R,5S)-HNK], in series [1] (female mice), the “B:P ratio (brain to plasma AUC ratio)” value was 1.0, the “Tmax in the brain” value came to 30 min, the “t1/2 Brain” value came out at 30 min and the “t1/2 Plasma” value worked out at 30 min. In series [1], the “Brain Concentration over time, sex-dependent difference” value is recorded as “F > M at 10, 30 min”; the “Plasma Concentration over time, sex-dependent difference” value is “F > M at 10, 30 min”; the “Brain Total exposure (AUC), sex-dependent difference” value was “F > M”; the “Plasma Total exposure (AUC), sex-dependent difference” value is on record as “F > M”. For the same compound, in series [1] (male mice), the “B:P ratio (brain to plasma AUC ratio)” value worked out at 0.9, the “t1/2 Brain” value turned out to be 30 min and the “t1/2 Plasma” value was 30 min.

For the compound `N[C@]1(c2ccccc2Cl)CC[C@H](O)CC1=O` [(2S,5S)-HNK], in series [1] (both sexes), the “brain concentration at 4 h post-treatment” value is recorded as “below LLOQs”. For the same compound, in series [1] (female mice), the “B:P ratio (brain to plasma AUC ratio)” value was determined as 1.3, the “t1/2 Brain” value came out at 18 min and the “t1/2 Plasma” value amounted to 36 min. Besides, in series [1], the “Brain Concentration over time, sex-dependent difference” value was “NS” and the “Plasma Concentration over time, sex-dependent difference” value is reported as “NS”. In series [1] (male mice), the “B:P ratio (brain to plasma AUC ratio)” value amounted to 1.2, the “t1/2 Brain” value amounted to 18 min and the “t1/2 Plasma” value is 30 min.

For the compound `CNC1(c2ccccc2Cl)CCCCC1=O` (stereo not shown) [ketamine, reference compound], the Ki in series [2] is 250 to 1060 nM.

In the case of `N[C@@]1(c2ccccc2Cl)C[C@@H](O)CCC1=O` [(2R,4S)-HNK], in series [1] (female mice), the “B:P ratio (brain to plasma AUC ratio)” value turned out to be 1.0, the “t1/2 Brain” value was determined as 18 min and the “t1/2 Plasma” value is 42 min. In addition, in series [1], the “Brain Concentration over time, sex-dependent difference” value was “M > F at 10, 30, 60 min”; the “Plasma Concentration over time, sex-dependent difference” value is on record as “M > F at 10, 30 min”; the “Brain Total exposure (AUC), sex-dependent difference” value is recorded as “M > F”; the “Plasma Total exposure (AUC), sex-dependent difference” value is “M > F”. For the same compound, the “brain concentration at 4 h post-treatment” value in series [1] (females, but not males) is on record as “below LLOQs”. Also, in series [1] (male mice), the “B:P ratio (brain to plasma AUC ratio)” value was 1.1, the “t1/2 Brain” value came to 30 min and the “t1/2 Plasma” value worked out at 36 min.

`N[C@]1(c2ccccc2Cl)C[C@@H](O)CCC1=O` [(2S,4S)-HNK]: in series [1] (female mice), the “B:P ratio (brain to plasma AUC ratio)” value turned out to be 0.9, the “t1/2 Brain” value came to 36 min and the “t1/2 Plasma” value was 42 min. Besides, in series [1], the “Brain Concentration over time, sex-dependent difference” value is reported as “F > M at 10, 30 min”; the “Plasma Concentration over time, sex-dependent difference” value is recorded as “F > M at 10, 30 min”; the “Brain Total exposure (AUC), sex-dependent difference” value is listed as “F > M”; the “Plasma Total exposure (AUC), sex-dependent difference” value was “F > M”. Besides, in series [1] (male mice), the “B:P ratio (brain to plasma AUC ratio)” value was 0.7, the “t1/2 Brain” value was 36 min and the “t1/2 Plasma” value was 42 min.

With `N[C@]1(c2ccccc2Cl)CC[C@@H](O)CC1=O` [(2S,5R)-HNK], in series [1] (female mice), the “B:P ratio (brain to plasma AUC ratio)” value amounted to 1.0, the “t1/2 Brain” value came out at 30 min and the “t1/2 Plasma” value was 30 min. In series [1], the “Brain Concentration over time, sex-dependent difference” value is on record as “NS”; the “Plasma Concentration over time, sex-dependent difference” value is “M > F at 30, 60 min”; the “Brain Total exposure (AUC), sex-dependent difference” value is “M > F”; the “Plasma Total exposure (AUC), sex-dependent difference” value is listed as “M > F”. Moreover, in series [1] (male mice), the “B:P ratio (brain to plasma AUC ratio)” value worked out at 0.7, the “Tmax in the brain” value is on record as 30 min, the “t1/2 Brain” value is 42 min and the “t1/2 Plasma” value was found to be 36 min.

On to `N[C@@]1(c2ccccc2Cl)CC[C@@H](O)CC1=O` [(2R,5R)-HNK], for which, in series [1] (female mice), the “B:P ratio (brain to plasma AUC ratio)” value came out at 1.4, the “t1/2 Brain” value was determined as 30 min and the “t1/2 Plasma” value turned out to be 30 min. Also, in series [1], the “Brain Concentration over time, sex-dependent difference” value was “NS”; the “Plasma Concentration over time, sex-dependent difference” value is given as “main effect of sex, M > F”; the “Plasma Total exposure (AUC), sex-dependent difference” value was “M > F”. Moreover, in series [1] (male mice), the “B:P ratio (brain to plasma AUC ratio)” value is 1.2, the “t1/2 Brain” value turned out to be 24 min and the “t1/2 Plasma” value stood at 30 min.

`N[C@]1(c2ccccc2Cl)C[C@H](O)CCC1=O` [(2S,4R)-HNK]: the “brain concentration at 4 h post-treatment” value in series [1] (both sexes) is reported as “below LLOQs”. Besides, in series [1] (female mice), the “B:P ratio (brain to plasma AUC ratio)” value worked out at 1.0, the “t1/2 Brain” value came to 18 min and the “t1/2 Plasma” value came to 24 min. For the same compound, in series [1], the “Brain Concentration over time, sex-dependent difference” value was “F > M at 10 min” and the “Plasma Concentration over time, sex-dependent difference” value is recorded as “F > M at 10 min”. For the same compound, in series [1] (male mice), the “B:P ratio (brain to plasma AUC ratio)” value turned out to be 0.9, the “t1/2 Brain” value came out at 24 min and the “t1/2 Plasma” value came to 30 min.

For `N[C@@]1(c2ccccc2Cl)C[C@H](O)CCC1=O` [(2R,4R)-HNK], in series [1] (female mice), the “B:P ratio (brain to plasma AUC ratio)” value came out at 1.2, the “t1/2 Brain” value is 30 min and the “t1/2 Plasma” value is 30 min. Also, in series [1], the “Brain Concentration over time, sex-dependent difference” value is “F > M at 10 min”; the “Plasma Concentration over time, sex-dependent difference” value was “F > M at 10 min”; the “Brain Total exposure (AUC), sex-dependent difference” value is on record as “M > F”; the “Plasma Total exposure (AUC), sex-dependent difference” value is listed as “M > F”. For the same compound, in series [1] (male mice), the “B:P ratio (brain to plasma AUC ratio)” value is listed as 1.3, the “Tmax in the brain” value is 30 min, the “t1/2 Brain” value was 36 min and the “t1/2 Plasma” value turned out to be 36 min.
